Assay results as given in US5434182A (priority 1993, dated 1995).
Values joined by “and” are separate entries in the source; they are usually repeats but may differ in a detail not shown here. Equal entries are not always repeated. “Also recorded” adds a separate entry of the source. Where two headings read alike, the source gives them in different places.

Experiments:
Visna virus = assay: microbe, parasite or virus in culture; format: cell-based, Visna virus strain K796; details: Visna-maedi virus, 0.5 h, 37° C., 30 min, read-out: Reduction of virus titer, VV (visna virus)
HSV-1 [1] = assay: microbe, parasite or virus in culture; format: cell-based, herpes simplex virus type 1 strain MacIntyre; details: Human alphaherpesvirus 1, 0.5 h, 37° C., 30 min, read-out: Reduction of virus titer, HSV-1
poliovirus = format: cell-based, Poliovirus type 1 strain Chat; details: 8 mg/ml, 37° C., 30 min; control 10^4.7 TCID50
VSV [2] = assay: microbe, parasite or virus in culture; format: cell-based, vesicular stomatitis virus strain Indiana; details: Vesicular stomatitis virus, 0.5 h; for minimal effective concentration: read-out: lowest concentration which reduced the VSV titer by ≥4.0 log10 units
enveloped viruses = format: cell-based
VSV [3] = assay: microbe, parasite or virus in culture; format: cell-based, vesicular stomatitis virus strain Indiana; details: for minimal effective concentration: read-out: Lowest concentration causing ≥3.0 log10 reduction in virus titer
HSV-1 [4] = format: cell-based, herpes simplex virus type 1 strain MacIntyre
HSV-1 [5] = assay: microbe, parasite or virus in culture; format: cell-based, herpes simplex virus type 1 strain MacIntyre; details: Human alphaherpesvirus 1, 0.5 h; 0.25 mg/ml, 37° C., 30 min; read-out: Reduction of virus titer, HSV-1
Group B streptococcus = assay: Inactivation of bacteria by monoglycerides, Group B streptococcus; format: cell-based; details: 2 mg/ml, read-out: Reduction of bacterial concentration, Group B streptococcus
VSV [6] = assay: microbe, parasite or virus in culture; format: cell-based, vesicular stomatitis virus
sperm = assay: Spermicidal test: motility and viability of sperm in semen; format: cell-based; details: for viability at 100000 µM / viability at 150000 µM: Homo sapiens, Sperm
Description: The fatty acids and derivatives thereof disclosed here are useful as spermicides and in the treatment of sexually transmitted diseases. […] Four samples tested were comprised as follows:
Five test tubes were prepared, one for each of Samples A to D and a Control. An amount of 0.5 ml of active semen was added to each test tube. Each of Samples A and B and the Control was at 37° C., and Samples C and D were at room temperature. The percentages of motility and viability were measured from 15 seconds to 5 minutes in the case of each of Samples A to D and from 15 seconds to 2 hours for the Control.

VSV [7] = assay: microbe, parasite or virus in culture; format: cell-based, vesicular stomatitis virus; details: for log reduction at 15000 µM: Vesicular stomatitis virus
Total White Blood Cells = assay: Stability of white blood cells in whole human blood to added lipid; format: cell-based; set-up: unit not given here; details: 15 mM, control 6.4
Text: Further testing has shown the effect of monoglyceride esters and ether on the total white blood cell concentration in whole human blood.

sheep fibroblasts = assay: Disintegration of cell membranes, sheep fibroblasts (scanning electron microscopy); details: 1 mg/ml, 37° C., 30 min
Vero cells = assay: Disintegration of cell membranes, Vero cells (scanning electron microscopy); details: 1 mg/ml, 37° C., 30 min
VSV [8] = assay: microbe, parasite or virus in culture; format: cell-based, vesicular stomatitis virus strain Indiana; details: for effect on viral particles (electron micrographs): 37° C., 30 min
[9] = read-out: Reduction of virus titer, VSV
[10] = Vesicular stomatitis virus, 0.5 h
[11] = Vesicular stomatitis virus, 0.5 h, read-out: Reduction of virus titer, VSV

CCCCCCCCCCCCCC(=O)O [Myristic (14:0), Myristic]
log reduction at 4000 µg/mL (Visna virus; 4 mg/ml): 1.7
log reduction at 4000 µg/mL (HSV-1 [1]; 4 mg/ml): ≥ 4
reduction of poliovirus titer (poliovirus): did not cause a significant reduction of virus titer
log reduction at 4000 µg/mL (VSV [2]; [9]): ≥ 4
minimal effective concentration (VSV [2]): 4000 µg/mL and 16000 µM
antiviral activity in words (enveloped viruses): showed activity

CCCCCCCCCCCC(=O)O [Lauric (12:0), Lauric]
log reduction at 2000 µg/mL (Visna virus; 2 mg/ml): ≥ 3.2
log reduction at 2000 µg/mL (HSV-1 [1]; 2 mg/ml): ≥ 4
reduction of poliovirus titer (poliovirus): did not cause a significant reduction of virus titer
log reduction at 2000 µg/mL (VSV [2]; [9]): ≥ 4
minimal effective concentration (VSV [2]): 2000 µg/mL and 10000 µM
antiviral activity in words (enveloped viruses): showed activity

CCCCCCCCCCCCCC(=O)OCC(O)CO (stereo not drawn) [Monomyristin (14:0), Monomyristin]
minimal effective concentration (VSV [3]; [10]): 2000 µg/mL and 13000 µM
log reduction at 2000 µg/mL (VSV [3]; [11]): 3
antiviral activity in words (enveloped viruses): consistently less active

CCCCCCCCCCCC(=O)OCC(O)CO (racemic) [Monolaurin (12:0), 1-Monolauroyl-rac-glycerol]
Reduction of HSV-L titer (HSV-1 [4]; incubation 0.5 min): ≥ 4.0
Reduction of HSV-L titer (HSV-1 [4]; incubation 1 min): ≥ 4.0
Reduction of HSV-L titer (HSV-1 [4]; incubation 5 min): ≥ 4.0
Reduction of HSV-L titer (HSV-1 [4]; incubation 10 min): ≥ 4.0
Reduction of HSV-L titer (HSV-1 [4]; incubation 30 min): ≥ 4.0
log reduction at 250 µg/mL (HSV-1 [5]): ≥ 3.7
minimal effective concentration (VSV [3]; [10]): 250 µg/mL and 900 µM
log reduction at 250 µg/mL (VSV [3]; [11]): ≥ 4
active concentration relative to corresponding free acids (VSV [3]; monoglyceride vs free acid): ten times lower
log reduction at 2000 µg/mL (Group B streptococcus): 4.5
dependence of viral killing on sodium taurocholate (VSV [6]; VSV, human serum): only takes place when sodium taurocholate is present
log reduction at 3000 µM (VSV [6]; Vesicular stomatitis virus, read-out: Reduction in VSV Titer, 3 mM, 10 mM sodium taurocholate, human serum): ≥ 5
log reduction at 3000 µM (VSV [6]; Vesicular stomatitis virus, read-out: Reduction in VSV Titer, 3 mM, no sodium taurocholate, human serum): 0
log reduction at 4000 µM (VSV [6]; Vesicular stomatitis virus, read-out: Reduction in VSV Titer, 4 mM, 10 mM sodium taurocholate, human serum): ≥ 5
log reduction at 4000 µM (VSV [6]; Vesicular stomatitis virus, read-out: Reduction in VSV Titer, 4 mM, no sodium taurocholate, human serum): 0
log reduction at 5000 µM (VSV [6]; Vesicular stomatitis virus, read-out: Reduction in VSV Titer, 5 mM, 10 mM sodium taurocholate, human serum): ≥ 5
log reduction at 5000 µM (VSV [6]; Vesicular stomatitis virus, read-out: Reduction in VSV Titer, 5 mM, no sodium taurocholate, human serum): 0
log reduction at 7500 µM (VSV [6]; Vesicular stomatitis virus, read-out: Reduction in VSV Titer, 7.5 mM, 10 mM sodium taurocholate, human serum (Table 18)): ≥ 5
log reduction at 15000 µM (VSV [6]; Vesicular stomatitis virus, read-out: Reduction in VSV Titer, 15 mM, 10 mM sodium taurocholate, human serum): ≥ 5
concentration as low as which kills VSV (VSV [6]; in the presence of 10 mM sodium taurocholate): 3 mM

CCCCCCCCOC[C@@H](O)CO [1-O-Octyl-sn-glycerol, 1-O-octyl-sn-glycerol]
% mot. (sperm; 100 mM in semen, 15 sec., Sample B 37° C., Sample D room temperature): 0%
% mot. (sperm; 100 mM in semen, 30 sec., Sample B 37° C., Sample D room temperature): 0%
% mot. (sperm; 100 mM in semen, 1 min., Sample B 37° C., Sample D room temperature): 0%
% mot. (sperm; 100 mM in semen, 2 min., Sample B 37° C., Sample D room temperature): 0%
% mot. (sperm; 100 mM in semen, 3 min., Sample B 37° C., Sample D room temperature): 0%
% mot. (sperm; 100 mM in semen, 5 min., Sample B 37° C., Sample D room temperature): 0%
% mot. (sperm; 150 mM in semen, 15 sec., Sample A 37° C., Sample C room temperature): 0%
% mot. (sperm; 150 mM in semen, 30 sec., Sample A 37° C., Sample C room temperature): 0%
% mot. (sperm; 150 mM in semen, 1 min., Sample A 37° C., Sample C room temperature): 0%
% mot. (sperm; 150 mM in semen, 2 min., Sample A 37° C., Sample C room temperature): 0%
% mot. (sperm; 150 mM in semen, 3 min., Sample A 37° C., Sample C room temperature): 0%
% mot. (sperm; 150 mM in semen, 5 min., Sample A 37° C., Sample C room temperature): 0%
time within which 0% viability was effected (sperm; A, C 150 mM, B 100 mM in semen): ≤ 3 min
time within which sperm cells were rendered immobile (sperm; A, C 150 mM, B 100 mM in semen): ≤ 15 s
coating of sperm (sperm; A, C 150 mM, B, D 100 mM in semen, 30 minutes): coated the sperm effectively
viability at 100000 µM (sperm; 0.05 h, 100 mM in semen, 3 min., Sample B 37° C.): 0%
viability at 150000 µM (sperm; 0.05 h, 150 mM in semen, 3 min., Sample A 37° C., Sample C room temperature): 0%
viability at 100000 µM (sperm; 5 min, 100 mM in semen, Sample B 37° C., Sample D room temperature): 0%
viability at 150000 µM (sperm; 5 min, 150 mM in semen, Sample A 37° C., Sample C room temperature): 0%
Reduction in VSV titer (VSV [7]; 5 mM, with 10 mM sodium taurocholate, human plasma, 37° 30 min): ≥ 4.0 Log10
log reduction at 15000 µM (VSV [7]; 2.5 min, read-out: Reduction in VSV Titer, 15 mM, 2.5 min, 37°, human plasma): 0
log reduction at 15000 µM (VSV [7]; 5 min, read-out: Reduction in VSV Titer, 15 mM, 5 min, 37°, human plasma): ≥ 4
log reduction at 15000 µM (VSV [7]; 10 min, read-out: Reduction in VSV Titer, 15 mM, 10 min, 37°, human plasma): ≥ 4
log reduction at 15000 µM (VSV [7]; 0.25 h, read-out: Reduction in VSV Titer, 15 mM, 15 min, 37°, human plasma): ≥ 4
log reduction at 15000 µM (VSV [7]; 0.5 h, read-out: Reduction in VSV Titer, 15 mM, 30 min, 37°, human plasma): ≥ 4
log reduction at 15000 µM (VSV [7]; 0.5 h, read-out: Reduction in VSV Titer, 15 mM, no sodium taurocholate, human plasma, 37° 30 min): ≥ 4
antiviral activity of MG ethers relative to esters, in words (VSV [7]; human plasma, listed as 8 carbon MG ether): just as effective as the naturally occurring esters; also recorded: somewhat more antiviral than the 8 carbon ester
Total White Blood Cells (Total White Blood Cells): 0.6

CCCCC/C=C\C/C=C\CCCCCCCC(=O)OC[C@@H](O)CO [Monolinolein (18:2), Monolinolein]
minimal effective concentration (VSV [3]; [10]): 250 µg/mL and 700 µM
log reduction at 250 µg/mL (VSV [3]; [11]): ≥ 4
concentration relative to monocaprin for same reduction in viral titer (VSV [3]; maintenance medium, millimolar): one-third the concentration
log reduction at 2000 µg/mL (Group B streptococcus): 4.5

CCCCC/C=C\C/C=C\CCCCCCCC(=O)O [Linoleic (18:2), linoleic acid]
log reduction at 1000 µg/mL (Visna virus; 1 mg/ml): ≥ 3.2
effect on cell membranes (sheep fibroblasts): the cell membranes were partly or completely disintegrated
effect on cell membranes (Vero cells): the cell membranes were partly or completely disintegrated
effect on viral particles (electron micrographs) (VSV [8]; 0.5 mg/ml): leakage of viral envelopes was produced
effect on viral particles (electron micrographs) (VSV [8]; 1 mg/ml): particle disintegration
log reduction at 500 µg/mL (VSV [8]; Vesicular stomatitis virus, 0.5 h, read-out: reduction in virus titer, 0.5 mg/ml, samples used for electron microscopy): 1
log reduction at 1000 µg/mL (VSV [8]; Vesicular stomatitis virus, 0.5 h, read-out: reduction in virus titer, 1 mg/ml, samples used for electron microscopy): ≥ 3
log reduction at 1000 µg/mL (HSV-1 [1]; 1 mg/ml): ≥ 4
reduction of poliovirus titer (poliovirus): did not cause a significant reduction of virus titer
log reduction at 1000 µg/mL (VSV [2]; [9]): ≥ 4
minimal effective concentration (VSV [2]): 1000 µg/mL and 3500 µM
